Key:
TrkA kinase = TrkA kinase (Homo sapiens (Human), UniProt P04629); assay: HTRF assay for inhibitory activity (IC50) against NTRK kinase, TrkA; format: biochemical; conditions: kinase 0.5 nM
Description: (§1) 1. Assay for Inhibitory Activity (IC50) Against NTRK Kinase
(§2) A testing platform for TrkA, TrkB and TrkC kinase activity was established based on Homogeneous Time-Resolved Fluorescence (HTRF) assay, and the activities of the compounds were tested using the platform. The compounds were subjected to three-fold gradient dilution with 100% DMSO with a starting concentration of 1 mM (11 concentrations in total). 4 μL of diluted sample for each concentration was added to 96 μL of reaction buffer (50 mM HEPES, pH7.4, 5 mM MgCl2, 1 mM NaVO3, 0.001% Tween-20, 0.01% BSA and 1 mM DTT) and mixed homogeneously to be used as a 4* compound. The reaction buffer was used to formulate 2* TrkA, TrkB and TrkC kinases (purchased from Carna Biosciences 08-186, 08-187, 08-197, and the final concentrations thereof were 0.5 nM, 0.1 nM, and 1 nM, respectively) and 4* substrate mixture (ATP+TK peptide) (wherein the final concentrations of ATP were 40 μM, 50 μM, and 20 μM, respectively; TK peptide, HTRF® KinEASE™-TK, was purchased from Cisbio, and the final concentration thereof was 100 nM) for use. 2.5 μL of the 4* compound was added to a 384-well plate (OptiPlate-384, purchased from PerkinElmer), and then 5 μL of the 2* TrkA, TrkB and TrkC kinases were added, and mixed homogeneously by centrifugation. Then 2.5 μL of the 4* substrate mixture was added to initiate the reaction (the total reaction volume is 10 μL). The 384-well plate was placed in an incubator and incubated for 60 min at 23° C. Then the reaction was terminated by adding 5 μL of Eu3+ cryptate-labeled anti-phosphotyrosine antibody (HTRF® KinEASE™-TK, purchased from Cisbio), and 5 μL of Streptavidin-XL-665 (HTRF® KinEASE™-TK, purchased from Cisbio). After incubated for 1 hr in the incubator, the fluorescence values were read on Envision (purchased from PerkinElmer). The excitation wavelength was 320 nm, and the emission wavelengths for detection were 665 nm and 620 nm. The enzymatic activity was represented by a ratio of the two readout at the two emission wavelengths. The enzymatic activity for each compound was tested at 11 concentrations, and IC50 values of the compounds were obtained by calculating the data using GraFit6.0 software (Erithacus Software).

TrkB kinase = TrkB kinase (Homo sapiens (Human), UniProt Q16620); assay: HTRF assay for inhibitory activity (IC50) against NTRK kinase, TrkB; format: biochemical; conditions: ATP 50 μM, kinase 0.1 nM
TrkB kinase, sequence (Q16620 32-822): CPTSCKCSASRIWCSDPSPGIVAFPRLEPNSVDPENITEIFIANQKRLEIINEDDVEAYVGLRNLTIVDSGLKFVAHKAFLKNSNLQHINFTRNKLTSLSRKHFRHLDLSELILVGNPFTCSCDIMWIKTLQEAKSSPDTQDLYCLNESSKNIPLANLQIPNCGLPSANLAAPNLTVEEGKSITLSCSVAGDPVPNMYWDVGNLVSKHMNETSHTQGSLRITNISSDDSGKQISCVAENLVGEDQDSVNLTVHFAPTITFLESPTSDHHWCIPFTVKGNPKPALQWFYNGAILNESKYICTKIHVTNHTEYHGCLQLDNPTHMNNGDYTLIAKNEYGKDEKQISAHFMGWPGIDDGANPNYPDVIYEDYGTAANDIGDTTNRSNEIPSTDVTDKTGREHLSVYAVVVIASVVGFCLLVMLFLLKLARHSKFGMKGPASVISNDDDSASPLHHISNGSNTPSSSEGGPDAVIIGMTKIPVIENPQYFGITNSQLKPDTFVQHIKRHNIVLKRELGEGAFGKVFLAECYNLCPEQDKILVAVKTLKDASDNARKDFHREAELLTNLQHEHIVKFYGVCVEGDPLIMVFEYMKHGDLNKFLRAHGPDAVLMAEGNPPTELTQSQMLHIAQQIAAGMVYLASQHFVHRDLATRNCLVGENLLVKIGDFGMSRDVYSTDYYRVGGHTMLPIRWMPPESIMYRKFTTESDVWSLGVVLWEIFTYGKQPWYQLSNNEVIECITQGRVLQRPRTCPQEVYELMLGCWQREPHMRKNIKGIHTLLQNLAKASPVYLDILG
Description: as §1, §2

TrkC kinase = TrkC kinase (Homo sapiens (Human), UniProt Q16288); assay: HTRF assay for inhibitory activity (IC50) against NTRK kinase, TrkC; format: biochemical; conditions: ATP 20 μM, kinase 1 nM
TrkC kinase, sequence (Q16288 32-839): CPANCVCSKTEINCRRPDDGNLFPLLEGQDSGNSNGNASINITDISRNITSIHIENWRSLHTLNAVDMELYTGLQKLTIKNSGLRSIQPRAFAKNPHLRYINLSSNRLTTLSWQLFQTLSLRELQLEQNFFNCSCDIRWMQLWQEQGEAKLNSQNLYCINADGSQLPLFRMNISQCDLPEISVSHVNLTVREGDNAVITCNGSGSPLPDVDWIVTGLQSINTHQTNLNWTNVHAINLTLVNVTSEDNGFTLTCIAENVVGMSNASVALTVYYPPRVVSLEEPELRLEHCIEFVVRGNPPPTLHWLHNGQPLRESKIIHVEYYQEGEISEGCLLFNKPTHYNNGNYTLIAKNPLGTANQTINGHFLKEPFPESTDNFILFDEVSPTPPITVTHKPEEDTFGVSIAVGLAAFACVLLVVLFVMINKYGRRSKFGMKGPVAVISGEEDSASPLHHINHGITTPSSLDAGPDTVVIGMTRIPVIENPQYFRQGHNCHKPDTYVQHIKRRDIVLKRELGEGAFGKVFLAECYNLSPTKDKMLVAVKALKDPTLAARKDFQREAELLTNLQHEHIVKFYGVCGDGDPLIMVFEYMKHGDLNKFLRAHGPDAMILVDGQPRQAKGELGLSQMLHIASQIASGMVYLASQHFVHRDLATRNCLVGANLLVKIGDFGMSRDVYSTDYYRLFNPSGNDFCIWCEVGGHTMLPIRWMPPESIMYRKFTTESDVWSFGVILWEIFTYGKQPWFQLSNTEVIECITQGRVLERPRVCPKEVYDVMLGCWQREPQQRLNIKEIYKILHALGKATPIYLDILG
Description: as §1, §2

JAK2 kinase = JAK2 kinase (Homo sapiens (Human), UniProt O60674); assay: HTRF assay for inhibitory activity (IC50) against JAK2 kinase; format: biochemical; conditions: ATP 5 μM, kinase 0.05 nM
JAK2 kinase, sequence (O60674 whole entry): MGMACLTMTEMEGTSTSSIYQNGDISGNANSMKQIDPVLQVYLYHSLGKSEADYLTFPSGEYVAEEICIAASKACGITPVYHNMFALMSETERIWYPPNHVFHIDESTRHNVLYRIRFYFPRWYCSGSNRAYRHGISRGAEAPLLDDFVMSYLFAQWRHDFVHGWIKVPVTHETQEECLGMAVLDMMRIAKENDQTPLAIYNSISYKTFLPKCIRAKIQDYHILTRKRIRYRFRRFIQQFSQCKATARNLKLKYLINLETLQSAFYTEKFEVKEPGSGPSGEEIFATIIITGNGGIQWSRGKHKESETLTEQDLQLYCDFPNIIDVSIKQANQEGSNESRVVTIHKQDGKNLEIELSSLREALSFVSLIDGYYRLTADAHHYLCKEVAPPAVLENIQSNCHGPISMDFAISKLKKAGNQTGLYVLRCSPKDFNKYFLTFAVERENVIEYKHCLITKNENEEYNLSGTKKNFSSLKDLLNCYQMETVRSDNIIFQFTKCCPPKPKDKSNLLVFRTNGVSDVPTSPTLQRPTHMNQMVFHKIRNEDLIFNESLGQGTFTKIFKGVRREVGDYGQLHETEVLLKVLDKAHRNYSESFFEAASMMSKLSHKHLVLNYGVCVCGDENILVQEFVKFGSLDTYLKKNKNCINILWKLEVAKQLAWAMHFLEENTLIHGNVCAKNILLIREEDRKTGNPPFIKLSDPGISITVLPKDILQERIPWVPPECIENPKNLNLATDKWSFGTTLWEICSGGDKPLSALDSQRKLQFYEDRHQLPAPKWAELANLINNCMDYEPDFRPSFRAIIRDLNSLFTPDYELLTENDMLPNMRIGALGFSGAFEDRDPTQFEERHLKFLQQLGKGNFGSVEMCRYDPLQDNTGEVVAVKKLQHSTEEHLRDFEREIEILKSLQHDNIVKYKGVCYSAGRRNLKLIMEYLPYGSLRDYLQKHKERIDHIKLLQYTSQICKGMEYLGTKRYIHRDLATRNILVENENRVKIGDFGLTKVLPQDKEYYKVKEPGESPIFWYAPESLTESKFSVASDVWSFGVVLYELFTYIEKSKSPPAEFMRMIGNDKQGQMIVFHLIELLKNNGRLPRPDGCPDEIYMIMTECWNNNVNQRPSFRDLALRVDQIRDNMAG
Description: 2. Assay for Inhibitory Activity (IC50) Against JAK2 Kinase
A testing platform for JAK2 kinase activity was established based on Homogeneous Time-Resolved Fluorescence (HTRF) assay, and the activities of the compounds were tested using the platform. The compounds were subjected to three-fold gradient dilution with 100% DMSO with a starting concentration of 1 mM (11 concentrations in total). 4 μL of diluted sample for each concentration was added to 96 μL of reaction buffer (50 mM HEPES, pH7.4, 10 mM MgCl2, 1 mM EDTA, 0.01% Tween-20, 0.005% BSA and 2 mM DTT) and mixed homogeneously. 2.5 μL of the resulting liquid was then added to a 384-well plate (OptiPlate-384, purchased from PerkinElmer), and 5 μL of JAK2 kinase (purchased from Carna, and the final concentration thereof is 0.05 nM) was added, and mixed homogeneously by centrifugation. Then 2.5 μL of a mixture of ATP (the final concentration is 5 μM) and TK peptide (HTRF® KinEASE™-TK, purchased from Cisbio, and the final concentration is 100 nM) was added to initiate the reaction (the total reaction volume is 10 μL). The 384-well plate was placed in an incubator to incubate for 120 min at 23° C. Then the reaction was terminated by adding 5 μL of Eu3+ cryptate-labled anti-phosphotyrosine antibody (purchased from Cisbio), and 5 μL of Streptavidin-XL-665 (HTRF® KinEASE™-TK, purchased from Cisbio). After incubated for 1 hr in the incubator, the fluorescence values were read on Envision (purchased from PerkinElmer). The excitation wavelength was 320 nm, and the emission wavelengths for detection were 665 nm and 620 nm. The enzymatic activity was represented by a ratio of the two readout at the two emission wavelengths. The enzymatic activity for each compound was tested at 11 concentrations, and IC50 values of the compounds were obtained by calculating the data using GraFit6.0 software (Erithacus Software).

[1] = molecular target: TrkA^G667C (Kinase domain) kinase (Homo sapiens (Human), UniProt P04629, G667C); assay: HTRF assay for inhibitory activity (IC50) against TrkA^G667C kinase; format: biochemical; conditions: mutant TrkA kinase, ATP 15 μM, kinase 0.5 nM
TrkA^G667C (Kinase domain) kinase, sequence (P04629 510-781 G667C): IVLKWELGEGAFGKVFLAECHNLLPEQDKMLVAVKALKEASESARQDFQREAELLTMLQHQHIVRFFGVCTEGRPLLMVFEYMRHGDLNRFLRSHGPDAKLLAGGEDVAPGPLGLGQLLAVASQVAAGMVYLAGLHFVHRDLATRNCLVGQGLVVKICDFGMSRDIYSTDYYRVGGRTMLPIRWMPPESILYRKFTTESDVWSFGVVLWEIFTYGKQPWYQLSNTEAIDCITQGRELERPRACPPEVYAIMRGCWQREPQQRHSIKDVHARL
Description: 3. Assay for Inhibitory Activity (IC50) Against TrkA^G667C Kinase
TrkA^G667C (Kinase domain) kinase was expressed in Sf9 cells (purchased from Invitrogen) using pIEX-Bac-4 (purchased from Merck), and purified by using Ni column affinity chromatography on AKTA Purifier (GE company). A testing platform for TrkA^G667C kinase activity was established based on Homogeneous Time-Resolved Fluorescence (HTRF) assay, and the activities of the compounds were tested using the platform. The compounds were subjected to five-fold gradient dilution with 100% DMSO with a starting concentration of 1 mM (8 concentrations in total). 4 μL of diluted sample for each concentration was added to 96 μL of reaction buffer (50 mM HEPES, pH7.4, 5 mM MgCl2, 1 mM NaVO3, 0.001% Tween-20, 0.01% BSA and 1 mM DTT) and mixed homogeneously to be used as a 4* compound. The reaction buffer was used to formulate 2* TrkA^G667C kinases (the final concentration was 0.5 nM) and a 4* substrate mixture (ATP+TK peptide) (wherein, the final concentration of ATP was 15 μM; TK peptide, HTRF® KinEASE™-TK, was purchased from Cisbio, and the final concentration thereof was 100 nM) for use. 2.5 μL of the 4* compound was added to a 384-well plate (OptiPlate-384, purchased from PerkinElmer), and then 5 μL of the 2* TrkA^G667C kinases were added, and mixed homogeneously by centrifugation. Then 2.5 μL of the 4* substrate mixture was added to initiate the reaction (the total reaction volume is 10 μL). The 384-well plate was placed in an incubator to incubate for 60 min at 23° C. Then the reaction was terminated by adding 5 μL of Eu3+ cryptate-labeled anti-phosphotyrosine antibody (HTRF KinEASE™-TK, purchased from Cisbio), and 5 μL of Streptavidin-XL-665 (HTRF® KinEASE™-TK, purchased from Cisbio). After incubated for 1 h in the incubator, the fluorescence values were read on Envision (purchased from PerkinElmer). The excitation wavelength was 320 nm, and the emission wavelengths for detection were 665 nm and 620 nm. The enzymatic activity was represented by a ratio of the two readout at the two emission wavelengths. […]

[2] = Pharmacokinetic assay in rats; format: in vivo; conditions: rat, po, male SD rats, 5 mg/kg single intragastric administration, plasma; for AUC(0-inf): read-out: AUCINF_obs
Description: Male SD rats were available from Beijing Vital River Laboratory Animal Technology Co., Ltd. The rats were allocated with three rats per group, and separately administered the suspension of a sample to be tested (5 mg/kg) by single intragastric administration. Before the experiment, the animals were fasted overnight, and the fasting time was from 10 hrs before administration to 4 hrs after administration. After administration, a blood sample was taken at 0.25 hr, 0.5 hr, 1 hr, 2 hrs, 4 hrs, 6 hrs, 8 hrs and 24 hrs. After the animals were narcotized with isoflurane using an anaesthesia machine for small animals, 0.3 mL of whole blood was taken from fundus venous plexus, and placed in a heparin anticoagulant tube. At 4° C., the sample was centrifuged at 4000 rpm for 5 min, and plasma was transferred to a centrifuge tube and preserved at −80° C. until the analysis was started. The sample in plasma was extracted by the protein precipitation method, and the extracted liquid was analyzed by LC/MS/MS.

TrkA kinase, sequence (P04629 33-796): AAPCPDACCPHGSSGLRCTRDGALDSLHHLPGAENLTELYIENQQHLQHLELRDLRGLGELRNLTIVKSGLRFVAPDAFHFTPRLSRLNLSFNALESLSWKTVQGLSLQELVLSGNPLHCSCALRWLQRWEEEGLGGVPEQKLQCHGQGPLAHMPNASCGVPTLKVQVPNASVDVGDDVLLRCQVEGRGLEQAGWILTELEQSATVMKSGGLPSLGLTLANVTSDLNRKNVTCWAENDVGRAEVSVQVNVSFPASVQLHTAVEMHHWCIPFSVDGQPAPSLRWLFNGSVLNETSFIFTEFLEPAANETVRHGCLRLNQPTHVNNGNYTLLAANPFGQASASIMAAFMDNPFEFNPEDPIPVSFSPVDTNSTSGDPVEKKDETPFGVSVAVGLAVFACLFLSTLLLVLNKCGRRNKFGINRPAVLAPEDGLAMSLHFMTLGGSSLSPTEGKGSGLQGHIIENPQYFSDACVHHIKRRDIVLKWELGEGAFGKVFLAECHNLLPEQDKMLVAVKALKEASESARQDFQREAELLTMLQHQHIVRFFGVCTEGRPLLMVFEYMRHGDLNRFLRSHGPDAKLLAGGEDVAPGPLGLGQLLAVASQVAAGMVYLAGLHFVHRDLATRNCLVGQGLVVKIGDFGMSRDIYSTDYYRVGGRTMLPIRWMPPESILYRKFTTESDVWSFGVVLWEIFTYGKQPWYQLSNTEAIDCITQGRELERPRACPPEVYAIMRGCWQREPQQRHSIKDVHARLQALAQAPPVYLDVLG

| Compound | IC50 (TrkA kinase; Table 1, ATP 40 μM) [nM] | IC50 (TrkA kinase; Table 2, ATP 40 μM) [nM] | IC50 (TrkB kinase) [nM] | IC50 (TrkC kinase) [nM] | IC50 (JAK2 kinase) [nM] | IC50 [1] [nM] | Cmax [2] [ng/mL] | Tmax [2] [h] | half-life [2] [h] | AUC(0-inf) [2] [ng·h/mL] |
| --- | --- | --- | --- | --- | --- | --- | --- | --- | --- | --- |
| NC(=O)c1c(N)nn2ccc(N3C[C@@H](F)C[C@@H]3c3cc(F)ccc3F)nc12 [Example 36, 2-amino-5-((2R,4S)-2-(2,5-difluorophenyl)-4-fluoropyrrolidin-1-yl)pyrazolo[1,5-a]pyrimidine-3-carboxamide] | < 1 | < 1 | < 1 | < 1 | > 100 | < 10 | 488 | 1 | 3.09 | 2240 |
| CCOC(=O)c1coc(-c2c(NCc3ccc(OC)cc3)nn3ccc(N4CCCC4c4cc(F)ccc4F)nc23)n1 (centres unmarked) [Example 26, ethyl 2-(5-(2-(2,5-difluorophenyl)pyrrolidin-1-yl)-2-((4-methoxybenzyl)amino)pyrazolo[1,5-a]pyrimidin-3-yl)oxazole-4-carboxylate] | < 100 |  |  |  |  |  |  |  |  |  |
| Nc1nn2ccc(N3C[C@@H](F)C[C@@H]3c3cc(F)ccc3F)nc2c1C(=O)NCCO [Example 49, 2-amino-5-((2R,4S)-2-(2,5-difluorophenyl)-4-fluoropyrrolidin-1-yl)-N-(2-hydroxyethyl)pyrazolo[1,5-a]pyrimidine-3-carboxamide] | < 1 |  |  |  |  |  |  |  |  |  |

The remaining lines, values ahead:

| IC50 (TrkA kinase; Table 1, ATP 40 μM) [nM] | IC50 (TrkA kinase; Table 2, ATP 40 μM) [nM] | IC50 (TrkB kinase) [nM] | IC50 (TrkC kinase) [nM] | IC50 (JAK2 kinase) [nM] | IC50 [1] [nM] | Cmax [2] [ng/mL] | Tmax [2] [h] | half-life [2] [h] | AUC(0-inf) [2] [ng·h/mL] | Compound |
| --- | --- | --- | --- | --- | --- | --- | --- | --- | --- | --- |
| < 1 | < 1 | < 10 | < 10 | > 500 |  |  |  |  |  | Nc1nn2ccc(N3CCC[C@@H]3c3cc(F)ccc3F)nc2c1C(=O)Nc1ccc(F)cc1 [Example 14, (R)-2-amino-5-(2-(2,5-difluorophenyl)pyrrolidin-1-yl)-N-(4-fluorophenyl)pyrazolo[1,5-a]pyrimidine-3-carboxamide] |
| < 1 | < 1 | < 1 | < 1 | > 20 | < 1 |  |  |  |  | Nc1nn2ccc(N3CCC[C@@H]3c3cc(F)ccc3F)nc2c1C(=O)N[C@H]1CC[C@H](O)CC1 [Example 12, 2-amino-5-((R)-2-(2,5-difluorophenyl)pyrrolidin-1-yl)-N-((trans)-4-hydroxycyclohexyl)pyrazolo[1,5-a]pyrimidine-3-carboxamide] |
| < 1 | < 1 | < 10 | < 10 | > 2000 |  |  |  |  |  | NC(=O)c1c(N)nn2ccc(N3CCC[C@@H]3c3cc(F)ccc3F)nc12 [Example 4, (R)-2-amino-5-(2-(2,5-difluorophenyl)pyrrolidin-1-yl)pyrazolo[1,5-a]pyrimidine-3-carboxamide] |
| < 1 | < 1 | < 1 | < 1 | > 10 | < 10 | 276 | 1.67 | 1.46 | 876 | CNC(=O)c1c(N)nn2ccc(N3C[C@@H](F)C[C@@H]3c3cc(F)ccc3F)nc12 [Example 39, 2-amino-5-((2R,4S)-2-(2,5-difluorophenyl)-4-fluoropyrrolidin-1-yl)-N-methylpyrazolo[1,5-a]pyrimidine-3-carboxamide] |

Reference: patent publication US10829492B2, “Amino pyrazolopyrimidine compound used as neurotrophic factor tyrosine kinase receptor inhibitor” (CHIA TAI TIANQING PHARMACEUTICAL GROUP CO., LTD., priority 2016, dated 2020)
